For the test, the target named is T1, cloned human MC4R (Homo sapiens, UniProt P32245).
T1 construct: made in house; host or cells: Hi5 insect cells (baculovirus infection); membrane preparation
As to the kind of experiment: Membrane binding assay: competitive inhibition of [125I]NDP-α-MSH binding. The settings on record: for inhibition at 10 µM: read-out: Displacement Rate (%) (at 10 μM); for pIC50: read-out: MC4R IC50. On the procedure:
Hi5 cells are infected using the following protocol: Cells at a density of 1×10^6 cells/mL are spun down at 1000 rpm (Beckman GS-6KR centrifuge) for 10 minutes. Cells are resuspended in 10% of their original volume in a sterile 50 mL conical centrifuge tube wrapped with aluminum foil. Virus is added at a Multiplicity of Infection (MOI) of 3 and incubated for 1 hour at room temperature with gentle shaking. […] Cells are spun down in 50 mL conical centrifuge tubes at 1000 rpm for 10 minutes. Each of the resulting pellets are resuspended in 10 mL of cold (4° C.) membrane buffer (25 mM HEPES, pH 7.4, 140 mM NaCl, 1.2 mM MgCl2, 2.5 mM CaCl2, 10 μG/mL Aprotinin, 10 μG/mL Leupeptin) and Dounce homogenized using 10-12 strokes. […] The resulting pellet is resuspended in cold membrane buffer in a total of ¼ of the original volume by vortexing and aspiration using a syringe and 27 gauge needle. Protein content is determined (Bradford, Bio-Rad Protein Assay). Membranes are aliquoted in microcentrifuge tubes and quick frozen in liquid nitrogen. Store at −80° C. until use. The membrane binding buffer is composed of 25 mM HEPES, pH 7.4, 140 mM NaCl, 1.2 mM MgCl2, 2.5 mM CaCl2, 0.1% BSA. […] The mixture is filtered with Brandel Microplate 96 filter apparatus using 96-well GF/B filter presoaked in 1-% polyethyleneimine (Sigma). The filter is washed (4 times with a total of 1 mL per well) with cold wash buffer consisting of 20 mM HEPES, pH 7.4, 5 mM MgCl2. […] 100 μl of Wallac Optiphase Supermix scintillation fluid is added to each well. The top is sealed and the plates are shaken to insure that the filters are thoroughly soaked with fluid. […] Dose-response curves are fitted by […] analyses and IC50 values are calculated using ExcelFit.

Where [1] appears, read: at 10 μM, [125I]NDP-α-MSH displacement.

pIC50: −log10 of the molar value. Where two headings read alike, the source gives them in different places.

T1 sequence (P32245 whole entry): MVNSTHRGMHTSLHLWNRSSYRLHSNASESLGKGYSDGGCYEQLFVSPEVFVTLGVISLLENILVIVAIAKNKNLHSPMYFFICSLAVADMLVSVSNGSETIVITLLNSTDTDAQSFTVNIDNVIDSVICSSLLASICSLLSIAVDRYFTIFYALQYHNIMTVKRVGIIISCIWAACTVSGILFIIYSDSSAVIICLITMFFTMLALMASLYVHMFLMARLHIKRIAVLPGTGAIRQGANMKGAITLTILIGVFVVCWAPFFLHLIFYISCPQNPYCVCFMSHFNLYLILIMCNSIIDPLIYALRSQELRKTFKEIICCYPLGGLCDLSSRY

One may read the pIC50 as −log10 of the IC50, conventionally taken in molar units. Turning to `N[C@@H](Cc1ccc(OCc2ccccc2)cc1)C(=O)N1CCCN(Cc2ccc(C(c3ccccc3)c3ccccc3)cc2)CC1` [Example 1], the pIC50 was more than 5.82. For the same compound, the inhibition at 10 µM under setting [1] was in the range of 91 to 100%.

In the case of `N[C@@H](Cc1ccc(OCc2ccccc2)cc1)C(=O)N1CCCN(Cc2ccccc2Sc2ccc(Cl)cc2)CC1` [Example 2], the pIC50 is 5.52 to 5.82. For the same compound, the inhibition at 10 µM under setting [1] was in the range of 91 to 100%.

Consider `CCn1c2ccccc2c2cc(CN3CCCN(C(=O)[C@@H](N)Cc4ccc(OCc5ccccc5)cc4)CC3)ccc21` [Example 3], for which the pIC50 was more than 5.82. Also, the inhibition at 10 µM under setting [1] fell in the range of 91 to 100%.

Regarding `N[C@@H](Cc1ccc(OCc2ccccc2)cc1)C(=O)N1CCCN(Cc2cccc(Oc3cc(Cl)cc(Cl)c3)c2)CC1` [Example 4], the pIC50 was more than 5.82. Besides, under setting [1], the inhibition at 10 µM lay within 91 to 100%.

For `N[C@@H](Cc1ccc(OCc2ccccc2)cc1)C(=O)N1CCCN(Cc2ccc(-c3ccc(Cl)cc3)o2)CC1` [Example 6], the negative-log IC50 (pIC50) is 5.52 to 5.82. Further, the inhibition at 10 µM under setting [1] lay in the range of 91 to 100%.

With `N[C@@H](Cc1ccc(OCc2ccccc2)cc1)C(=O)N1CCCN(Cc2ccc(-c3ccccc3)cc2)CC1` [Example 8], the pIC50 is 5.52 to 5.82. Under setting [1], the inhibition at 10 µM lay in the range of 91 to 100%.

Take `N[C@@H](Cc1ccc(OCc2ccccc2)cc1)C(=O)N1CCCN(Cc2cn(Cc3ccccc3)c3ccccc23)CC1` [Example 9]: the negative-log IC50 (pIC50) was more than 5.82. Further, the inhibition at 10 µM under setting [1] was in the range of 91 to 100%.

Turning to `N[C@@H](Cc1ccc(OCc2ccccc2)cc1)C(=O)N1CCCN(Cc2ccc3c(c2)Cc2ccccc2-3)CC1` [Example 10], the negative-log IC50 (pIC50) is 5.52 to 5.82. The inhibition at 10 µM under setting [1] lay within 91 to 100%.

Consider `N[C@@H](Cc1ccc(OCc2ccccc2)cc1)C(=O)N1CCCN(Cc2ccc(/C=C/c3ccccc3)cc2)CC1` [Example 11], for which the negative-log IC50 (pIC50) is more than 5.82. Moreover, under setting [1], the inhibition at 10 µM was in the range of 91 to 100%.

As to `N[C@@H](Cc1ccc(OCc2ccccc2)cc1)C(=O)N1CCCN(Cc2cc(OCc3ccccc3)cc(OCc3ccccc3)c2)CC1` [Example 12], the pIC50 was more than 5.82. Also, the inhibition at 10 µM under setting [1] was 91 to 100%.

Take `N[C@@H](Cc1ccc(OCc2ccccc2)cc1)C(=O)N1CCCN(Cc2ccc(OCc3ccccc3)cc2)CC1` [Example 13]: the pIC50 was 5.52 to 5.82. For the same compound, the inhibition at 10 µM under setting [1] is 91 to 100%.

Consider `CCCCCCCCOc1ccc(CN2CCCN(C(=O)[C@@H](N)Cc3ccc(OCc4ccccc4)cc3)CC2)cc1` [Example 14], for which the pIC50 is more than 5.82. Besides, the inhibition at 10 µM under setting [1] was 91 to 100%.

On to `COc1cc(CN2CCCN(C(=O)[C@@H](N)Cc3ccc(OCc4ccccc4)cc3)CC2)ccc1OCc1ccc([N+](=O)[O-])cc1` [Example 15], for which the pIC50 is 5.52 to 5.82. Also, the inhibition at 10 µM under setting [1] lay in the range of 91 to 100%.

For `N[C@@H](Cc1ccc(OCc2ccccc2)cc1)C(=O)N1CCCN(Cc2cccc(Oc3cccc(C(F)(F)F)c3)c2)CC1` [Example 16], the pIC50 is more than 5.82. In addition, the inhibition at 10 µM under setting [1] was 91 to 100%.

On to `N[C@@H](Cc1ccc(OCc2ccccc2)cc1)C(=O)N1CCCN(Cc2ccc(Cl)c(Cl)c2)CC1` [Example 17], for which the pIC50 is 5.52 to 5.82. The inhibition at 10 µM under setting [1] was 91 to 100%.

For the compound `Cc1ccc(S(=O)(=O)n2cc(CN3CCCN(C(=O)[C@@H](N)Cc4ccc(OCc5ccccc5)cc4)CC3)c3ccccc32)cc1` [Example 18], the pIC50 was more than 5.82. For the same compound, the inhibition at 10 µM under setting [1] was in the range of 91 to 100%.

As for `N[C@@H](Cc1ccc(OCc2ccccc2)cc1)C(=O)N1CCCN(Cc2cccc(Oc3ccc(Cl)c(Cl)c3)c2)CC1` [Example 19], the pIC50 is more than 5.82. Besides, the inhibition at 10 µM under setting [1] is 91 to 100%.

As to `N[C@@H](Cc1ccc(OCc2ccccc2)cc1)C(=O)N1CCCN(Cc2c3ccccc3cc3ccccc23)CC1` [Example 20], the inhibition at 10 µM lay in the range of 91 to 100% and the pIC50 is less than 5.52.

On to `N[C@@H](Cc1ccc(OCc2ccccc2)cc1)C(=O)N1CCCN(Cc2ccc(-c3cccc([N+](=O)[O-])c3)o2)CC1` [Example 21], for which the pIC50 was 5.52 to 5.82. For the same compound, the inhibition at 10 µM under setting [1] lay within 91 to 100%.

On to `N[C@@H](Cc1ccc(OCc2ccccc2)cc1)C(=O)N1CCCN(Cc2ccccc2C(F)(F)F)CC1` [Example 22], for which the negative-log IC50 (pIC50) is less than 5.52. Under setting [1], the inhibition at 10 µM is 91 to 100%.

Regarding `N[C@@H](Cc1ccc(OCc2ccccc2)cc1)C(=O)N1CCCN(CC(c2ccccc2)c2ccccc2)CC1` [Example 23], the pIC50 was less than 5.52. Further, the inhibition at 10 µM under setting [1] is 91 to 100%.

Regarding `CCOc1ccc(CN2CCCN(C(=O)[C@@H](N)Cc3ccc(OCc4ccccc4)cc3)CC2)c(OCC)c1C` [Example 24], the pIC50 is more than 5.82. In addition, under setting [1], the inhibition at 10 µM lay in the range of 91 to 100%.

As for `N[C@@H](Cc1ccc(OCc2ccccc2)cc1)C(=O)N1CCCN(Cc2ccc(C(F)(F)F)cc2)CC1` [Example 25], the pIC50 was more than 5.82. Moreover, under setting [1], the inhibition at 10 µM lay in the range of 91 to 100%.

For `CC(C)(C)c1cc(CN2CCCN(C(=O)[C@@H](N)Cc3ccc(OCc4ccccc4)cc3)CC2)cc(C(C)(C)C)c1O` [Example 26], the pIC50 is 5.52 to 5.82. Besides, the inhibition at 10 µM under setting [1] was 71 to 90%.

Turning to `N[C@@H](Cc1ccc(OCc2ccccc2)cc1)C(=O)N1CCCN(Cc2ccc(OCc3ccc([N+](=O)[O-])cc3)cc2)CC1` [Example 27], the pIC50 is more than 5.82. Under setting [1], the inhibition at 10 µM was in the range of 71 to 90%.

As to `N[C@@H](Cc1ccc(OCc2ccccc2)cc1)C(=O)N1CCCN(Cc2ccc(C(F)(F)F)cc2F)CC1` [Example 28], the pIC50 is less than 5.52. The inhibition at 10 µM under setting [1] was 71 to 90%.

Regarding `COc1cc(CN2CCCN(C(=O)[C@@H](N)Cc3ccc(OCc4ccccc4)cc3)CC2)ccc1OCc1ccccc1` [Example 29], the pIC50 is 5.52 to 5.82. Moreover, the inhibition at 10 µM under setting [1] lay in the range of 71 to 90%.

Consider `N[C@@H](Cc1ccc(OCc2ccccc2)cc1)C(=O)N1CCCN(C2CCc3ccccc3C2)CC1` (some centres unmarked) [Example 30], for which the inhibition at 10 µM fell in the range of 71 to 90% and the negative logarithm of the IC50 (pIC50) was less than 5.52.

Regarding `COc1cc(OC)c(CN2CCCN(C(=O)[C@@H](N)Cc3ccc(OCc4ccccc4)cc3)CC2)cc1Br` [Example 31], the pIC50 is 5.52 to 5.82. Moreover, the inhibition at 10 µM under setting [1] lay within 71 to 90%.

Take `CCCCCOc1ccc(CN2CCCN(C(=O)[C@@H](N)Cc3ccc(OCc4ccccc4)cc3)CC2)cc1` [Example 32]: the pIC50 is more than 5.82. Further, the inhibition at 10 µM under setting [1] lay within 71 to 90%.

On to `N[C@@H](Cc1ccc(OCc2ccccc2)cc1)C(=O)N1CCCN(Cc2ccc(Oc3ccccc3)cc2)CC1` [Example 33], for which the pIC50 was 5.52 to 5.82. Also, the inhibition at 10 µM under setting [1] was 71 to 90%.

On to `N[C@@H](Cc1ccc(OCc2ccccc2)cc1)C(=O)N1CCCN(Cc2cc([N+](=O)[O-])ccc2Cl)CC1` [Example 34], for which the inhibition at 10 µM lay within 71 to 90% and the pIC50 is less than 5.52.

`CCCCc1ccc(CN2CCCN(C(=O)[C@@H](N)Cc3ccc(OCc4ccccc4)cc3)CC2)cc1` [Example 35]: the negative-log IC50 (pIC50) was 5.52 to 5.82. In addition, the inhibition at 10 µM under setting [1] was in the range of 71 to 90%.

Regarding `Cc1ccc(C)c(CN2CCCN(C(=O)[C@@H](N)Cc3ccc(OCc4ccccc4)cc3)CC2)c1` [Example 36], the negative-log IC50 (pIC50) is less than 5.52. Under setting [1], the inhibition at 10 µM lay in the range of 71 to 90%.

Consider `N[C@@H](Cc1ccc(OCc2ccccc2)cc1)C(=O)N1CCCN(Cc2ccnc3ccccc23)CC1` [Example 37], for which the pIC50 was less than 5.52. For the same compound, under setting [1], the inhibition at 10 µM was in the range of 71 to 90%.

Turning to `CCc1ccc(CN2CCCN(C(=O)[C@@H](N)Cc3ccc(OCc4ccccc4)cc3)CC2)cc1` [Example 38], the negative-log IC50 (pIC50) is less than 5.52. Also, the inhibition at 10 µM under setting [1] was 71 to 90%.

On to `CC(C)(C)c1ccc(CN2CCCN(C(=O)[C@@H](N)Cc3ccc(OCc4ccccc4)cc3)CC2)cc1` [Example 39], for which the pIC50 was 5.52 to 5.82. In addition, the inhibition at 10 µM under setting [1] was 71 to 90%.

`CCOc1cccc(CN2CCCN(C(=O)[C@@H](N)Cc3ccc(OCc4ccccc4)cc3)CC2)c1O` [Example 40]: the negative logarithm of the IC50 (pIC50) is less than 5.52. Moreover, under setting [1], the inhibition at 10 µM lay in the range of 71 to 90%.

With `N[C@@H](Cc1ccc(OCc2ccccc2)cc1)C(=O)N1CCCN(C2CCC(c3ccccc3)CC2)CC1` (some centres unmarked) [Example 41], the negative logarithm of the IC50 (pIC50) is less than 5.52. Also, under setting [1], the inhibition at 10 µM lay in the range of 71 to 90%.

Regarding `N[C@@H](Cc1ccc(OCc2ccccc2)cc1)C(=O)N1CCCN(CCCc2ccccc2)CC1` [Example 42], the pIC50 was less than 5.52. The inhibition at 10 µM under setting [1] lay in the range of 71 to 90%.

Take `COc1ccc2ccccc2c1CN1CCCN(C(=O)[C@@H](N)Cc2ccc(OCc3ccccc3)cc2)CC1` [Example 43]: the pIC50 is 5.52 to 5.82. In addition, the inhibition at 10 µM under setting [1] lay in the range of 71 to 90%.

`CC(Cc1cccc(C(F)(F)F)c1)N1CCCN(C(=O)[C@@H](N)Cc2ccc(OCc3ccccc3)cc2)CC1` (some centres unmarked) [Example 44]: the pIC50 is 5.52 to 5.82. In addition, under setting [1], the inhibition at 10 µM fell in the range of 71 to 90%.

`CCc1ccc(CN2CCCN(C(=O)[C@@H](N)Cc3ccc(OCc4ccccc4)cc3)CC2)s1` [Example 45]: the pIC50 is less than 5.52. The inhibition at 10 µM under setting [1] lay in the range of 35 to 70%.

These data come from US6916812B2, “Alpha-aminoamide derivatives as melanocortin agonists” (Bristol-Myers Squibb Company, priority 2001, dated 2005).
